Legend:
[1] = test system: Mus musculus; assay: Evaluated for the prevention of TBZ ptosis by intraperitoneal administration in mice; type: functional; conditions: ip
[2] = test system: Mus musculus; assay: Antagonistic activity against scopolamine-induced behavioral deficits in mice by subcutaneous administration at a concentration of 0.63 mg/kg; type: functional
[3] = test system: Mus musculus; assay: Antagonistic activity against scopolamine-induced behavioral deficits in mice by subcutaneous administration at a concentration of 1.25 mg/kg; type: functional
[4] = test system: Mus musculus; assay: Antagonistic activity against scopolamine-induced behavioral deficits in mice by subcutaneous administration at a concentration of 2.5 mg/kg; type: functional
[5] = molecular target: Muscarinic acetylcholine receptor; assay: Inhibition of radioligand [3H]QNB binding (competitive inhibition) to muscarinic acetylcholine receptor in the rat forebrain in the absence of zinc
[6] = molecular target: Muscarinic acetylcholine receptor; assay: Inhibition of radioligand [3H]QNB binding to muscarinic acetylcholine receptor in the rat forebrain in the presence of zinc
[7] = test system: Mus musculus; assay: Antagonistic activity against scopolamine-induced behavioral deficits in mice by subcutaneous administration at a concentration of 5.0 mg/kg; type: functional
[8] = test system: Mus musculus; assay: Antagonistic activity against scopolamine-induced behavioral deficits in mice by subcutaneous administration at a concentration of 0.02 mg/kg; type: functional
[9] = test system: Mus musculus; assay: Antagonistic activity against scopolamine-induced behavioral deficits in mice by subcutaneous administration at a concentration of 0.04 mg/kg; type: functional
[10] = test system: Mus musculus; assay: Antagonistic activity against scopolamine-induced behavioral deficits in mice by subcutaneous administration at a concentration of 0.16 mg/kg; type: functional
[11] = test system: Mus musculus; assay: Antagonistic activity against scopolamine-induced behavioral deficits in mice by subcutaneous administration at a concentration of 0.31 mg/kg; type: functional
[12] = test system: Mus musculus; assay: (§1) Antagonistic activity against scopolamine-induced behavioral deficits in mice by subcutaneous administration at a concentration of 5 mg/kg; type: functional
[13] = test system: Mus musculus; assay: as §1; type: functional; remark: listed apart in the source

| Compound | IC50 [5] | IC50 [6] | ED50 [1] | Response [2] | Response [3] | Response [4] | Response [7] | Response [8] | Response [9] | Response [10] | Response [11] | Response [12] | Response [13] |
| --- | --- | --- | --- | --- | --- | --- | --- | --- | --- | --- | --- | --- | --- |
| CN(c1ccncc1)n1cccc1/C=C/c1ccccc1 | 1.6 µM | 17 µM | > 20 mg/kg | – | – | 20% | 33% | – | – | – | – | – | – |
| C#CCN(c1ccncc1)n1cccc1 | 9 µM | 76.4 µM | > 20 mg/kg | – | – | – | – | 20% | 27% | 47% | 27% | – | – |
| CCCN(c1ccncc1)n1cccc1C=O | 14 µM | 51 µM | > 20 mg/kg | – | – | – | – | – | – | – | – | – | – |
| CCCN(c1ccncc1)n1cccc1 | 6.5 µM | 21.5 µM | > 20 mg/kg | 27% | – | 27% | – | – | – | 33% | – | – | – |
| c1ccn(Nc2ccncc2)c1 | 43 µM | 184 µM | > 20 mg/kg | 21% | – | 47% | – | – | – | – | 21% | 36% | – |
| CCN(c1ccncc1)n1cccc1 | 9.5 µM | 120 µM | > 20 mg/kg | – | – | – | – | – | – | – | – | – | – |
| Clc1cccn1Nc1ccncc1 | 13 µM | 76.2 µM | > 20 mg/kg | – | – | – | – | – | – | – | – | – | – |
| CN(c1ccncc1)n1ccc(C=O)c1 | 33 µM | 185 µM | > 20 mg/kg | 33% | 29% | – | 47% | – | – | – | 20% | – | – |
| O=Cc1cccn1Nc1ccncc1 | 86 µM | 721 µM | > 20 mg/kg | 43% | – | – | – | – | – | 20% | 27% | – | – |
| CCCN(c1ccncc1)n1ccc(C=O)c1 | 11 µM | 138 µM | > 20 mg/kg | – | – | – | – | – | – | – | – | – | – |
| CN(c1ccncc1)n1cccc1CCc1ccccc1 | 3 µM | 8.1 µM | > 20 mg/kg | – | – | – | – | – | – | – | 33% | – | – |
| CC(=O)N(c1ccncc1)n1cccc1 | – | > 1000 µM | – | – | – | – | – | – | – | – | – | – | – |
| C=CCN(c1ccncc1)n1cccc1 | 6.9 µM | 27 µM | > 20 mg/kg | 20% | – | – | – | – | – | 20% | – | – | – |
| c1ccc(CN(c2ccncc2)n2cccc2)cc1 | 3.5 µM | 13.5 µM | > 20 mg/kg | – | – | – | – | – | – | 20% | – | – | – |
| CCCCN(c1ccncc1)n1cccc1 | 4 µM | 12.5 µM | > 20 mg/kg | 20% | – | – | – | – | – | – | – | – | – |
| CN(C)CCC=C1c2ccccc2CCc2ccccc21 [AMITRIPTYLINE] | – | 0.3 µM | 1.5 mg/kg | – | – | – | – | – | – | – | – | – | – |

Second part, led by results:

| IC50 [5] | IC50 [6] | Compound | ED50 [1] | Response [2] | Response [3] | Response [4] | Response [7] | Response [8] | Response [9] | Response [10] | Response [11] | Response [12] | Response [13] |
| --- | --- | --- | --- | --- | --- | --- | --- | --- | --- | --- | --- | --- | --- |
| 5.4 µM | 33 µM | CCN(c1ccncc1)n1cccc1Cl | > 20 mg/kg | 20% | 36% | 27% | – | – | – | – | – | – | – |
| 24 µM | 295 µM | CN(c1ccncc1)n1cccc1C#N | > 20 mg/kg | – | 40% | – | 20% | – | – | – | – | – | – |
| 11 µM | 24 µM | CC(O)c1ccn(N(C)c2ccncc2)c1 (centres undefined) | 10 mg/kg | – | 27% | – | – | – | – | 20% | 20% | – | – |
| 13 µM | 70 µM | CN(c1ccncc1)n1cccc1 | > 20 mg/kg | – | – | – | – | – | – | – | – | 1% | 29% |
| 24 µM | 52 µM | CN(c1ccncc1)n1cccc1C=O | > 20 mg/kg | 27% | 60% | 50% | 31% | – | – | 50% | 53% | – | – |
| 6.9 µM | 43 µM | CN(c1ccncc1)n1cccc1Cl | > 20 mg/kg | – | – | – | – | – | – | – | – | – | – |
| 6.4 µM | 22 µM | CCc1cccn1N(C)c1ccncc1 | > 20 mg/kg | 20% | – | – | 27% | – | – | – | – | – | – |
| 26 µM | 39 µM | CN(c1ccncc1)n1cccc1CO | > 20 mg/kg | – | – | – | – | – | – | – | – | – | – |
| 2.6 µM | 8.6 µM | CCCN(c1ccncc1)n1cccc1Cl | > 20 mg/kg | – | – | 27% | – | – | – | – | – | – | – |
| 23 µM | 173 µM | CC(O)c1cccn1N(C)c1ccncc1 (centres undefined) | > 20 mg/kg | – | – | – | – | – | – | – | – | – | – |
